Tests used:
[1] = test system: MOG35-55-induced murine EAE model; assay: MOG35-55-induced murine EAE model versus standards of care (Example 4); format: in vivo, mice
Description: Experimental autoimmune (allergic) encephalomyelitis (EAE) is considered the best non-clinical model of multiple sclerosis (MS). EAE is characterized by immune responses against CNS tissue and can be induced in animals by immunizing them against proteins of the CNS. In the active EAE model, mice are immunized with MOG35-55 peptide emulsified in Complete Freund's Adjuvant (CFA) by subcutaneous injection at the tail base (0.1 mL of emulsion/mouse) under anesthesia. On the day of injection (Day 0) and 2 days later, mice receive an intraperitoneal injection of Pertussis Toxin (PT) in PBS at 600 ng/mouse/dose (0.1 mL).
Symptoms typically develop in mice 9-14 days after immunization (Day 0). Daily observation and scoring of mice start on Day 9 and continue until the end of the study. Table 5 details the expected clinical symptoms and the scoring criteria used in this study.
To evaluate the therapeutic effects of Compound 2, treatment was initiated after the first clinical symptoms were observed. […] Mice in all groups were monitored and scored daily for clinical symptoms.
At the end of the study, spleens were collected from a representative sample of mice from each group for splenocyte analysis. A single-cell suspension was prepared for cellular phenotyping by flow cytometry. Cells were stained and gated for CD4+ T-cells. Percent FoxP3+/CD4+ T-cells were evaluated by flow cytometry.

[2] = test system: pristane-induced lupus model; assay: Pristane-induced lupus model; format: in vivo, mice; conditions: 3 μg SC daily, interim data
Description: Four-week old female Balb/c mice received 0.5 ml IP injection of pristane (Sigma Aldrich). Eight weeks post pristane injection, all mice tested positive for anti-dsDNA antibody titers (FUJIFILM Wako Pure Chemical Corporation), indicating systemic disease onset. On Day 60, mice were randomized to treatment (n=12) (Compound 2, 3 μg SC daily) or control group (n=11), and treatment was started. Mice were monitored daily for cutaneous lupus symptoms by checking for the appearance of skin lesions.

NMO mouse model = assay: AQP4-p201-p220-induced neuromyelitis optica mouse model, fundoscopy; format: in vivo, mice; conditions: number of eyes since randomization, 3 μg SC daily, 20 eyes
Description: NMO is a CNS autoimmune inflammatory demyelinating disease that causes optico-spinal disorder leading to paralysis and vision loss. NMO mouse model was established by using AQP4-p201-p220 peptide (from Genemed Synthesis Inc.). Briefly, C57BL/6 mice (n=30) were immunized on day 0 with 100 micrograms of the AQP4-p201-p220 peptide emulsified in CFA. Mice were injected subcutaneously at the tail base under anesthesia. On the day of injection (Day 0) and two days later, mice received intraperitoneal injection of pertussis toxin (PTx) in PBS at 200 ng/mouse/dose (0.1 ml).
Prior to immunizing the mice on day 0, both eyes of each of the mice were imaged by fundoscopy. Fundoscopy was employed to study (a) optic disc inflammation, and (b) retinal damage (exudates as evidence of inflammation). Mice were monitored for disease onset daily after one week of immunization (day 7) for clinical symptoms, as per the scoring system developed by Ramadan et al., Brain 2016. Mice with a score of 1.0 or any […] symptoms were immediately randomized into either group A or group B treatment regimens to receive up to 14 days of treatment. Group A (n=10) received Compound 2 3 μg SC daily, and Group B (n=8) served as a control and was treated with a placebo.
Fundoscopy was conducted on day 6 post-immunization and was later performed approximately once every four days, i.e., on days 9, 13, 16, 22, and 26. Each eye was scored for inflammation in the optic disc and retinal damage evident by the appearance of ‘exudates’ (blotchiness) in the fundus image. Eye samples were collected during the onset of disease and post-randomization after at least 9-12 days of treatment and on day 14 (end of study) to assess the histology of both the optic nerve and the retina.

[3] = test system: human B-cells (CD19+CD71+IgM+); assay: Regulatory B-cell induction in human PBMCs; format: cell-based; conditions: 10 ng/ml, five days
Description: 2×10^5 Total PBMCs or T-cell depleted PBMCs were cultured in a 96-well plate in the presence of ascending doses of Compound 2 ranging from 0 to 10 ng/ml for five days. At day 5, cells were washed and stained for CD19, CD71 and IgM for 30 minutes on ice, then cells were washed with PBS, and stained with viability dye to exclude dead cells.

[4] = test system: MOG35-55-induced murine EAE model; assay: MOG35-55-induced murine EAE model, Compound 2 versus Compound 8 (Example 12); format: in vivo, mice; conditions: 3 μg/mouse/day SC, after ten days of treatment
Description: Mice were immunized with 100 μg MOG35-55 emulsified with CFA and pertussis toxin, as described in Example 4. At disease onset (clinical score 1), mice were randomized into two treatment groups, and received 3 μg/mouse/day SC of either Compound 2 or Compound 8.

[5] = test system: FoxP3+/CD4+ T-cells (spleen); assay: Pharmacodynamics of a single ascending dose in mice, splenic T-cell phenotyping; format: in vivo; conditions: for percent of FoxP3+/CD4+ T-cells, mean: single dose, spleen five days after dose
Description: All animal studies were conducted under IACUC number B2020-91 and in compliance with Tufts University/Tufts Medical Center & Human Nutrition Research Center on Aging. Animals were housed 4 per cage and had access to food and water ad libitum. Compound 2 was formulated with 10% DMSO in PBS buffer.
This study was designed to evaluate the PD effects of a single dose of Compound 2 in mice. Animals were administered a single oral gavage, as per their group assignment. Five days after the oral dose, animals were sacrificed, and their spleens were collected for T-cell phenotyping. FIG. 2A is a schematic diagram of the study design.
For ex vivo analysis, spleens were collected for splenocyte analysis, and prepared into a single-cell suspension for cellular phenotyping by flow cytometry. Cells were stained and gated for CD4. Percent FoxP3+/CD4+ T-cells and percent FoxP3+/NRP1+ were evaluated using flow cytometry. For dose-response analysis, dose versus response was fitted to 4- and 5-parameters, log-logistic models using the “dre” package in “R”. Both EC50 and EC90 were obtained by model fitting.

[6] = four-parameter dose-response model, single dose per mouse

Compound: N[C@@H](CNC(=O)Cc1ccc(OCc2cccc3ccccc23)cc1)C(=O)O [Compound 2, (S)-2-Amino-3-(2-(4-(naphthalen-1-ylmethoxy)phenyl)acetamido)propanoic acid]
- disease control after switching from anti-alpha4 integrin ([1]; 10-μg oral dose following one or two injections of anti-alpha4 integrin): resulted in disease control after disease onset
- control of MS symptoms after disease onset versus glatiramer acetate ([1]; all doses and regimens): more effective than glatiramer acetate
- control of MS symptoms after disease onset versus anti-alpha4 integrin ([1]; daily 10-μg oral dose): as effective as a full regimen of anti-alpha4 integrin
- MS clinical score after disease onset ([1]; doses of Table 6, treatment from clinical score 1): reduced the MS clinical score after disease onset in a dose-dependent manner
- incidence of cutaneous lupus ([2]; after two weeks of treatment): 8%
- onset of cutaneous symptoms compared to untreated control mice [2]: delayed by two days
- Cleared/Clearing eyes (recovery) (NMO mouse model): 4
- Maintained/No change (NMO mouse model): 14
- Worsening conditions (NMO mouse model): 0
- percentage of B-reg (CD19+CD71+IgM+) ([3]; T-cell depleted PBMCs): 14.0%
- percentage of B-reg (CD19+CD71+IgM+) ([3]; total PBMC cultures): 17.5%
- mean clinical score, comparison of the two groups [4]: no statistical difference
- ED50 for FoxP3+/CD4+ T-cells [5, 6]: 4.88 µg
- ED90 for FoxP3+/CD4+ T-cells [5, 6]: 82.1 µg
- increase of the number of FoxP3+/CD4+ T-cells (T-reg) ([5]; from the lowest dose to the highest dose group): 150%
- percent of FoxP3+/CD4+ T-cells, mean ([5]; highest dose group): 25.4%
- percent of FoxP3+/CD4+ T-cells, mean ([5]; lowest dose group): 10.7%

Reference: patent US20230089267A1, “Compositions and Methods For Reducing Immune Intolerance and Treating Autoimmune Disorders” (Lapix Therapeutics, Inc., priority 2021, published 2023)
